Assay results as given in patent publication US11083709B2, “Compounds, compositions, and methods of increasing CFTR activity” (Proteostasis Therapeutics, Inc., priority 2015, dated 2021).
Where a name gives a salt, the structure may show the parent alone.

target: T1, ΔF508-CFTR (Homo sapiens, UniProt P13569, DEL508-508); assay: hBE equivalent current (Ieq) assay, primary lung epithelial cells homozygous for ΔF508; type: cell-based; settings: compound alone run at 10 uM, relative to VX-809 at 1 uM; 24 h treatment
T1 construct: primary lung epithelial cells (hBEs) homozygous for the Cystic Fibrosis-causing ΔF508 mutation; endogenous in cells; host or cells: primary lung epithelial cells (hBEs) homozygous for ΔF508
Protocol: Primary lung epithelial cells homozygous for the Cystic Fibrosis-causing ΔF508 mutation were differentiated for a minimum of 4 weeks in an air-liquid interface on Costar 24 well HTS filter plates prior to the equivalent current (Ieq) measurements. Cells were apically mucus-washed for 30 minutes 24h prior to treatment with compounds. The basolateral media was removed and replaced with media containing the compound of interest diluted to its final concentration from DMSO stocks. Treated cells were incubated at 37° C. and 5% CO2 for 24 hours. At the end of the treatment period, the media was changed to the Ieq experimental solution for 30 minutes before the experiment and plates are maintained in a CO2-free incubator during this period. The plates containing the cells were then placed in pre-warmed heating blocks at 36° C.±0.5 for 15 minutes before measurements are taken. The transepithelial voltage (VT) and conductance (GT) were measured using a custom 24 channel current clamp (TECC-24) with 24 well electrode manifold. The Ieq assay measurements were made following additions with standardized time periods: • 1. The baseline VT and GT values were measured for approximately 20 minutes. • 2. Benzamil was added to block ENaC for 15 minutes. • 3. Forskolin plus VX-770 (ivacaftor) were added to maximally activate ΔF508-CFTR for 27 minutes. • 4. Bumetanide was added to inhibit the NaK2Cl cotransporter and shut-off secretion of chloride.
The activity data captured was the area under the curve (AUC) for the traces of the equivalent chloride current. The AUC was collected from the time of the forskolin/VX-770 addition until the inhibition by bumetanide addition. Correction in response to compound treatment was scored as the increase in the AUC for compound-treated samples over that of vehicle-treated samples.
The results are shown below in Table 2. ++ indicates activity ≥25% run at 10 uM of VX-809 at 1 uM, + indicates activity 10 to <25% run at 10 uM of VX-809 at 1 uM, ** indicates activity ≥200% of VX-809 (1 uM) with compound at 10 uM and VX-809 at 1 uM; * indicates activity 100-200% of VX-809 (1 uM) with compound at 10 uM and VX-809 at 1 uM. ^## indicates activity ≥200% of VX-809 (3 uM) with compound at 10 uM and VX-809 at 3 uM; ^# indicates activity 100-200% of VX-809 (3 uM) with compound at 10 uM and VX-809 at 3 uM.

T1 sequence (P13569 with tags, fused parts or gaps DEL508-508): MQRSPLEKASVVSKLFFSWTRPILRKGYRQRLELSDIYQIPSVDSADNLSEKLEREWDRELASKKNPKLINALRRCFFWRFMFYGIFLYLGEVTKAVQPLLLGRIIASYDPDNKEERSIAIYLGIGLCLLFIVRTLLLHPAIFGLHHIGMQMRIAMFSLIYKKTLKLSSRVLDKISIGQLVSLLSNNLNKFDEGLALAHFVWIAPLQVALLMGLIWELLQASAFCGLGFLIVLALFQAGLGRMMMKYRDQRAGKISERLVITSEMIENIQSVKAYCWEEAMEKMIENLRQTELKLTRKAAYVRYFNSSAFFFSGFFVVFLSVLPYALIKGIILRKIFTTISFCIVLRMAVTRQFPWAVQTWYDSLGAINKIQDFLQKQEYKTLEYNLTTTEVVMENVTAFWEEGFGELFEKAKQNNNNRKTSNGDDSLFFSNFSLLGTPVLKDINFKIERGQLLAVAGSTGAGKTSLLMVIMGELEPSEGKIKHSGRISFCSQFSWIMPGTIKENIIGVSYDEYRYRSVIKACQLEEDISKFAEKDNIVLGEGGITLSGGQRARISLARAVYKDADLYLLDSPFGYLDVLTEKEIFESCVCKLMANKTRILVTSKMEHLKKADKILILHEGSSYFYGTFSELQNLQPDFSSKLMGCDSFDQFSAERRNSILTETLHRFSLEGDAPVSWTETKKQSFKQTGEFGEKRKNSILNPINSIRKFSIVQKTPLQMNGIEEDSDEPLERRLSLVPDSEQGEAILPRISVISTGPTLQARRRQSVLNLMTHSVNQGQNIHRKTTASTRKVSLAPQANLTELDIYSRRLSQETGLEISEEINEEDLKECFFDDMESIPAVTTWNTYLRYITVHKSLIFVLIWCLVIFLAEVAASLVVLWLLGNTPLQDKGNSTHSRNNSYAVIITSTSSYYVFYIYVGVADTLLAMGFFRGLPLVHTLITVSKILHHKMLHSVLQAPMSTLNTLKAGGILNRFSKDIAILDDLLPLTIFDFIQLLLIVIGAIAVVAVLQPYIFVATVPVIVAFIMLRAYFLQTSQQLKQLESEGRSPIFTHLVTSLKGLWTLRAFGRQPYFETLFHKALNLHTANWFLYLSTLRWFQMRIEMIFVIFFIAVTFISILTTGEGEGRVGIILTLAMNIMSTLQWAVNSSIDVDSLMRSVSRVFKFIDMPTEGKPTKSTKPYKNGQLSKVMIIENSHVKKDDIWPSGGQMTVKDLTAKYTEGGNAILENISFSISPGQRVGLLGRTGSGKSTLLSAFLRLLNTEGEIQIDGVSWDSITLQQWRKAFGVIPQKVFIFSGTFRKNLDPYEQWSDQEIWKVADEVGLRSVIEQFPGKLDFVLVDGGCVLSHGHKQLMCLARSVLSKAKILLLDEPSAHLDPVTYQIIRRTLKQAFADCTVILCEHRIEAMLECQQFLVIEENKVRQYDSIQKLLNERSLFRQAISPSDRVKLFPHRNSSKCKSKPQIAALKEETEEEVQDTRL

SMILES	leq: activity relative to VX-809 (AUC of equivalent chloride current)
COCCNC(=O)c1cc(-c2ccccc2)no1 [Example 1, N-(2-methoxyethyl)-3-phenylisoxazole-5-carboxamide]	++ (++ indicates activity ≥25% run at 10 uM of VX-809 at 1 uM)
O=C(NCC1CCCO1)c1cc(-c2ccccc2)no1 (stereo not shown) [Example 2, 3-phenyl-N-((tetrahydrofuran-2-yl)methyl)isoxazole-5-carboxamide]	++ (++ indicates activity ≥25% run at 10 uM of VX-809 at 1 uM)
O=C(NCCN1CCOCC1)c1cc(-c2ccccc2)no1 [Example 3, N-(2-morpholinoethyl)-3-phenylisoxazole-5-carboxamide]	++ (++ indicates activity ≥25% run at 10 uM of VX-809 at 1 uM)
O=C(NCCCn1ccnc1)c1cc(-c2ccccc2)no1 [Example 4, N-(3-(1H-imidazol-1-yl)propyl)-3-phenylisoxazole-5-carboxamide]	+ (+ indicates activity 10 to <25% run at 10 uM of VX-809 at 1 uM)
Cn1nccc1CCCNC(=O)c1cc(-c2ccccc2)no1 [Example 7, N-(3-(1-methyl-1H-pyrazol-5-yl)propyl)-3-phenylisoxazole-5-carboxamide]	++ (++ indicates activity ≥25% run at 10 uM of VX-809 at 1 uM)
COCCNC(=O)c1cc(-c2ccccc2)co1 [Example 8, N-(2-methoxyethyl)-4-phenylfuran-2-carboxamide]	+ (+ indicates activity 10 to <25% run at 10 uM of VX-809 at 1 uM)
O=C(NCC1CCCO1)c1cc(-c2ccccc2)co1 (stereo not shown) [Example 9, 4-phenyl-N-((tetrahydrofuran-2-yl)methyl)furan-2-carboxamide]	++ (++ indicates activity ≥25% run at 10 uM of VX-809 at 1 uM)
O=C(NCCN1CCOCC1)c1cc(-c2ccccc2)co1 [Example 10, N-(2-morpholinoethyl)-4-phenylfuran-2-carboxamide]	+ (+ indicates activity 10 to <25% run at 10 uM of VX-809 at 1 uM)
O=C(NCCCn1ccnc1)c1cc(-c2ccccc2)co1 [Example 11, N-(3-(1H-imidazol-1-yl)propyl)-4-phenylfuran-2-carboxamide]	++ (++ indicates activity ≥25% run at 10 uM of VX-809 at 1 uM)
O=C(NC1CC1)c1cc(-c2ccccc2)co1 [Example 12, N-cyclopropyl-4-phenylfuran-2-carboxamide]	++ (++ indicates activity ≥25% run at 10 uM of VX-809 at 1 uM)

same assay, conditions: compound at 10 uM and VX-809 at 1 uM, relative to VX-809 (1 uM); 24 h treatment

SMILES	leq: activity of compound with VX-809, % of VX-809 (AUC of equivalent chloride current)
CC(OC1CCC1)c1nnc([C@H]2C[C@H](NC(=O)c3cc(-c4ccccc4)no3)C2)o1 (relative stereo) [Example 17, N-(trans-3-(5-(1-cyclobutoxyethyl)-1,3,4-oxadiazol-2-yl)cyclobutyl)-3-phenylisoxazole-5-carboxamide]	* (* indicates activity 100-200% of VX-809 (1 uM) with compound at 10 uM and VX-809 at 1 uM)
CC(OCC(F)(F)F)c1nnc(C2CC(NC(=O)c3cc(-c4ccccc4)no3)C2)o1 (single isomer, unassigned) [Example 15]	* (* indicates activity 100-200% of VX-809 (1 uM) with compound at 10 uM and VX-809 at 1 uM)
Cn1nccc1CCCNC(=O)c1cc(-c2ccccc2)no1 [Example 7, N-(3-(1-methyl-1H-pyrazol-5-yl)propyl)-3-phenylisoxazole-5-carboxamide]	* (* indicates activity 100-200% of VX-809 (1 uM) with compound at 10 uM and VX-809 at 1 uM)
O=C(NC1CC1)c1cc(-c2ccccc2)co1 [Example 12, N-cyclopropyl-4-phenylfuran-2-carboxamide]	* (* indicates activity 100-200% of VX-809 (1 uM) with compound at 10 uM and VX-809 at 1 uM)
CO[C@H](C)c1nnc([C@H]2C[C@H](NC(=O)c3cc(-c4ccccc4)no3)C2)o1 [Example 14, N-(trans-3-(5-((R)-1-methoxyethyl)-1,3,4-oxadiazol-2-yl)cyclobutyl)-3-phenylisoxazole-5-carboxamide]	* (* indicates activity 100-200% of VX-809 (1 uM) with compound at 10 uM and VX-809 at 1 uM)
C[C@@H](OCC1CN(C)C1)c1nnc([C@H]2C[C@H](NC(=O)c3cc(-c4ccccc4)no3)C2)o1 [Example 20, N-(trans-3-(5-((R)-1-((1-methylazetidin-3-yl)methoxy)ethyl)-1,3,4-oxadiazol-2-yl)cyclobutyl)-3-phenylisoxazole-5-carboxamide]	* (* indicates activity 100-200% of VX-809 (1 uM) with compound at 10 uM and VX-809 at 1 uM)
CN1CC(c2nnc([C@H]3C[C@H](NC(=O)c4cc(-c5ccccc5)no4)C3)o2)C1 [Example 21, N-(trans-3-(5-(1-methylazetidin-3-yl)-1,3,4-oxadiazol-2-yl)cyclobutyl)-3-phenylisoxazole-5-carboxamide trifluoroacetate]	* (* indicates activity 100-200% of VX-809 (1 uM) with compound at 10 uM and VX-809 at 1 uM)
O=C(NC1CC(c2nnc(C3COC3)o2)C1)c1cc(-c2ccccc2)no1 (stereo not drawn) [Example 22, N-trans-3-(5-(oxetan-3-yl)-1,3,4-oxadiazol-2-yl)cyclobutyl)-3-phenylisoxazole-5-carboxamide]	* (* indicates activity 100-200% of VX-809 (1 uM) with compound at 10 uM and VX-809 at 1 uM)
O=C(N[C@H]1C[C@H](c2nnc(C3CS(=O)(=O)C3)o2)C1)c1cc(-c2ccccc2)no1 [Example 23, N-(trans-3-(5-(1,1-dioxidothietan-3-yl)-1,3,4-oxadiazol-2-yl)cyclobutyl)-3-phenylisoxazole-5-carboxamide]	* (* indicates activity 100-200% of VX-809 (1 uM) with compound at 10 uM and VX-809 at 1 uM)
CN1CCC(N2CC(c3nnc(C4CC(NC(=O)c5cc(-c6ccccc6)no5)C4)o3)C2)CC1 (stereo not drawn) [Example 24, N-cis-(3-(5-(1-(1-methylpiperidin-4-yl)azetidin-3-yl)-1,3,4-oxadiazol-2-yl)cyclobutyl)-3-phenylisoxazole-5-carboxamide]	* (* indicates activity 100-200% of VX-809 (1 uM) with compound at 10 uM and VX-809 at 1 uM)
O=C(N[C@H]1C[C@H](c2nnc(C3CN(CC4CCC4)C3)o2)C1)c1cc(-c2ccccc2)no1 [Example 27, N-(trans-3-(5-(1-(cyclobutylmethyl)azetidin-3-yl)-1,3,4-oxadiazol-2-yl)cyclobutyl)-3-phenylisoxazole-5-carboxamide]	* (* indicates activity 100-200% of VX-809 (1 uM) with compound at 10 uM and VX-809 at 1 uM)
O=C(N[C@H]1C[C@@H](n2nncc2CO)C1)c1cc(-c2ccccc2)no1 [Example 28, N-(cis-3-(5-(hydroxymethyl)-1H-1,2,3-triazol-1-yl)cyclobutyl)-3-phenylisoxazole-5-carboxamide]	** (** indicates activity ≥200% of VX-809 (1 uM) with compound at 10 uM and VX-809 at 1 uM)
